Source: US20260365653A1, “IRREVERSIBLE MUTEGFR INHIBITORS” (Bayer Aktiengesellschaft, priority 2022, published 2026)

Legend:
[1] = biological target: T1, mutEGFR (D770_N771insNPG, T790) (Homo sapiens, UniProt P00533, INS770NPG/T790M); experiment: mutEGFR (D770_N771insNPG, T790) kinase assay; format: biochemical; conditions: Table 2a, D770_N771insNPG
T1 construct: exact insNPG construct not described; in-house EGFR proteins were N-terminal GST fusions from baculovirus/insect cells (borders R669-A1210 given only for WT, insSVD, insASV)
Description: The different EGFR proteins used in the biochemical kinase activity inhibition assays were generated inhouse by expression in insect cells using Baculo Virus system and subsequent purification as described in the following paragraphs.
The cDNAs encoding the various protein sequences from human EGFR human (P00533) were optimized for expression in eukaryotic cells and synthesized by the GeneArt Technology at Life Technologies.

[2] = system: BA/F3 (insSVD) cells; experiment: Ba/F3-EGFR-insSVD cell survival assay (Cell Titer-Glo); format: cell-based; conditions: Mus musculus, BaF3, 48 h, Table 3a, cell survival, Cell Titer-Glo, with 10 ng/ml EGF, without IL-3
Procedure, shortened: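 Ba/F3 cells stably expressing retroviral EGFR-insSVD or insSVD T790M, grown without IL-3 on 10 ng/ml EGF, 4000 cells/well. Compound pinned in, 48 h at 37° C. Viability by CellTiter-Glo luminescence.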

[3] = biological target: T2, mutEGFR (D770_N771insSVD) (Homo sapiens, UniProt P00533, DUP768-770); experiment: Exon20-Mutant-EGFR (D770_N771insSVD) kinase assay (TR-FRET); format: biochemical; conditions: mutEGFR (D770_N771insSVD) kinase assay IC50, Table 2a; D770_N771insSVD; 2 mM ATP
T2 construct: GST-EGFR #3 (SVD between D770 and N771); made in house; host or cells: Sf9 insect cells (baculovirus)
T2 sequence (P00533 with tags, fused parts or gaps DUP768-770): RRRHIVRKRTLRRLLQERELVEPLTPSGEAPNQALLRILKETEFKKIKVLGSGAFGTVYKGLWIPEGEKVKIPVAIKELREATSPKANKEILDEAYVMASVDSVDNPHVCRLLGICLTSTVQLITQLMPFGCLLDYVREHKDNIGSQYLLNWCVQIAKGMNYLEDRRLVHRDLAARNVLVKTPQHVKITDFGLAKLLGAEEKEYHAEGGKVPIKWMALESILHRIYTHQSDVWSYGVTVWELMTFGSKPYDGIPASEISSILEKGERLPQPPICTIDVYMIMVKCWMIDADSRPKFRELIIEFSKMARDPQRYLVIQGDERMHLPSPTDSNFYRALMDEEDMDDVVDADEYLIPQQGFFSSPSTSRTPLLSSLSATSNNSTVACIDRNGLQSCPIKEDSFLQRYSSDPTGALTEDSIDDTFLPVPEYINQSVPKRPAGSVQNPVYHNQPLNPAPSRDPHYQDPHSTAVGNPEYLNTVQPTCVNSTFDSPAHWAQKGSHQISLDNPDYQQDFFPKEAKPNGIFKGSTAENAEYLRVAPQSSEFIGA

T1 sequence (P00533 with tags, fused parts or gaps INS770NPG/T790M limits assumed): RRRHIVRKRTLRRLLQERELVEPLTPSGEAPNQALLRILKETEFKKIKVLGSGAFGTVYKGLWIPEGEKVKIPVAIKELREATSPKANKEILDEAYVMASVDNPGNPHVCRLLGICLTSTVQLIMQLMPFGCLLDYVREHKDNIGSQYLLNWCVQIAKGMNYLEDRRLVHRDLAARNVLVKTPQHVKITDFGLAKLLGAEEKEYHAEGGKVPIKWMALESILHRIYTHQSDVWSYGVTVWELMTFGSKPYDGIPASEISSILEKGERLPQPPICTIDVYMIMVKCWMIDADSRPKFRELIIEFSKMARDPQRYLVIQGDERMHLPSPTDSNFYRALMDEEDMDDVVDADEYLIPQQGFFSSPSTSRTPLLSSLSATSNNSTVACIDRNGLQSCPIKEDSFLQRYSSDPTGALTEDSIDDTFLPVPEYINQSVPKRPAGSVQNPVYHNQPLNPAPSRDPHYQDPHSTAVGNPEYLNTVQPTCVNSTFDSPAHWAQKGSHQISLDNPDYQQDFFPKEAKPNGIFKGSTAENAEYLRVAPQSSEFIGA

| Compound | IC50 [1] [nM] | IC50 [2] [nM] | IC50 [3] [nM] |
| --- | --- | --- | --- |
| CN(C)C/C=C/C(=O)N1CCn2nc(-c3ccc(C(F)F)cc3)c(-c3ccncc3)c2C1 [Example 148, (2E)-1-{2-[4-(difluoromethyl)phenyl]-3-(pyridin-4-yl)-6,7-dihydropyrazolo[1,5-a]pyrazin-5(4H)-yl}-4-(dimethylamino)but-2-en-1-one] | 9.1 | 387 | 1.91 |
| CN(C)C/C=C/C(=O)N1CCn2nc(-c3cc(Cl)ccc3F)c(-c3ccncc3)c2C1 [Example 149, (2E)-1-[2-(5-chloro-2-fluorophenyl)-3-(pyridin-4-yl)-6,7-dihydropyrazolo[1,5-a]pyrazin-5(4H)-yl]-4-(dimethylamino)but-2-en-1-one] | 2.59 | 200 | 1.54 |
| CN(C)C/C=C/C(=O)N1CCn2nc(-c3cccc(Cl)c3)c(-c3ccncc3)c2C1 [Example 150, (2E)-1-[2-(3-chlorophenyl)-3-(pyridin-4-yl)-6,7-dihydropyrazolo[1,5-a]pyrazin-5(4H)-yl]-4-(dimethylamino)but-2-en-1-one] | 1.05 | 54.3 | 0.764 |
| CN(C)C/C=C/C(=O)N1CCn2nc(-c3ccc(C(F)(F)F)c(F)c3)c(-c3ccncc3)c2C1 [Example 151, (2E)-4-(dimethylamino)-1-{2-[3-fluoro-4-(trifluoromethyl)phenyl]-3-(pyridin-4-yl)-6,7-dihydropyrazolo[1,5-a]pyrazin-5(4H)-yl}but-2-en-1-one] | 12.1 | 405 | 3.2 |
| CN(C)C/C=C/C(=O)N1CCn2nc(-c3ccc(C(F)(F)F)cc3F)c(-c3ccncc3)c2C1 [Example 152, (2E)-4-(dimethylamino)-1-{2-[2-fluoro-4-(trifluoromethyl)phenyl]-3-(pyridin-4-yl)-6,7-dihydropyrazolo[1,5-a]pyrazin-5(4H)-yl}but-2-en-1-one] | 4.55 | 257 | 1.05 |
| CN(C)C/C=C/C(=O)N1CCn2nc(-c3ccccc3F)c(-c3ccncc3)c2C1 [Example 153, (2E)-4-(dimethylamino)-1-[2-(2-fluorophenyl)-3-(pyridin-4-yl)-6,7-dihydropyrazolo[1,5-a]pyrazin-5(4H)-yl]but-2-en-1-one] | 9.91 | 557 | 2.29 |
| CN(C)C/C=C/C(=O)N1CCn2nc(-c3ccccc3Cl)c(-c3ccncc3)c2C1 [Example 154, (2E)-1-[2-(2-chlorophenyl)-3-(pyridin-4-yl)-6,7-dihydropyrazolo[1,5-a]pyrazin-5(4H)-yl]-4-(dimethylamino)but-2-en-1-one] | 27.5 | 2850 | 3.48 |
| COc1cccc(-c2nn3c(c2-c2ccncc2)CN(C(=O)/C=C/CN(C)C)CC3)c1 [Example 155, (2E)-4-(dimethylamino)-1-[2-(3-methoxyphenyl)-3-(pyridin-4-yl)-6,7-dihydropyrazolo[1,5-a]pyrazin-5(4H)-yl]but-2-en-1-one] | 5.24 | 1050 | 6.43 |
| Cc1ccc(-c2nn3c(c2-c2ccncc2)CN(C(=O)/C=C/CN(C)C)CC3)cc1 [Example 156, (2E)-4-(dimethylamino)-1-[2-(4-methylphenyl)-3-(pyridin-4-yl)-6,7-dihydropyrazolo[1,5-a]pyrazin-5(4H)-yl]but-2-en-1-one] | 4.64 | 98.2 | 1.45 |
| Cc1cccc(-c2nn3c(c2-c2ccncc2)CN(C(=O)/C=C/CN(C)C)CC3)c1 [Example 157, (2E)-4-(dimethylamino)-1-[2-(3-methylphenyl)-3-(pyridin-4-yl)-6,7-dihydropyrazolo[1,5-a]pyrazin-5(4H)-yl]but-2-en-1-one] | 1.77 | 117 | 1 |
| CCc1ccc(-c2nn3c(c2-c2ccncc2)CN(C(=O)/C=C/CN(C)C)CC3)cc1 [Example 158, (2E)-4-(dimethylamino)-1-[2-(4-ethylphenyl)-3-(pyridin-4-yl)-6,7-dihydropyrazolo[1,5-a]pyrazin-5(4H)-yl]but-2-en-1-one] | 16.4 | 482 | 5.01 |
| CN(C)C/C=C/C(=O)N1CCn2nc(-c3cccc(C#N)c3)c(-c3ccncc3)c2C1 [Example 159, 3-{5-[(2E)-4-(dimethylamino)but-2-enoyl]-3-(pyridin-4-yl)-4,5,6,7-tetrahydropyrazolo[1,5-a]pyrazin-2-yl}benzonitrile] | 38.7 | 764 | 83.1 |
| COc1ccc(-c2nn3c(c2-c2ccncc2)CN(C(=O)/C=C/CN(C)C)CC3)c(F)c1 [Example 160, (2E)-4-(dimethylamino)-1-[2-(2-fluoro-4-methoxyphenyl)-3-(pyridin-4-yl)-6,7-dihydropyrazolo[1,5-a]pyrazin-5(4H)-yl]but-2-en-1-one] | 6.58 | 973 | 1.48 |
| CN(C)C/C=C/C(=O)N1CCn2nc(-c3ccc(SC(F)(F)F)cc3)c(-c3ccncc3)c2C1 [Example 161, (2E)-4-(dimethylamino)-1-[3-(pyridin-4-yl)-2-{4-[(trifluoromethyl)sulfanyl]phenyl}-6,7-dihydropyrazolo[1,5-a]pyrazin-5(4H)-yl]but-2-en-1-one] | 629 | 1990 | 92.9 |
| O=C(/C=C/CN1CCC1)N1CCn2nc(-c3ccc(Cl)cc3)c(-c3ccncc3)c2C1 [Example 162, (2E)-4-(azetidin-1-yl)-1-[2-(4-chlorophenyl)-3-(pyridin-4-yl)-6,7-dihydropyrazolo[1,5-a]pyrazin-5(4H)-yl]but-2-en-1-one] | 2.32 | 43.8 | 0.507 |
| O=C(/C=C/CN1CCCCC1)N1CCn2nc(-c3ccc(Cl)cc3)c(-c3ccncc3)c2C1 [Example 163, (2E)-1-[2-(4-chlorophenyl)-3-(pyridin-4-yl)-6,7-dihydropyrazolo[1,5-a]pyrazin-5(4H)-yl]-4-(piperidin-1-yl) but-2-en-1-one] | 0.619 | 47.4 | 0.16 |
| CN1CCN(C/C=C/C(=O)N2CCn3nc(-c4ccc(Cl)cc4)c(-c4ccncc4)c3C2)CC1 [Example 164, (2E)-1-[2-(4-chlorophenyl)-3-(pyridin-4-yl)-6,7-dihydropyrazolo[1,5-a]pyrazin-5(4H)-yl]-4-(4-methylpiperazin-1-yl) but-2-en-1-one] | 9.37 | 155 | 2.99 |
| O=C(/C=C/CN1CCOCC1)N1CCn2nc(-c3ccc(Cl)cc3)c(-c3ccncc3)c2C1 [Example 165, (E)-1-(2-(4-chlorophenyl)-3-(pyridin-4-yl)-6,7-dihydropyrazolo[1,5-a]pyrazin-5(4H)-yl)-4-morpholinobut-2-en-1-one] | 2.43 | 107 | 0.631 |
| CC(C)N(C)C/C=C/C(=O)N1CCn2nc(-c3ccc(Cl)cc3)c(-c3ccncc3)c2C1 [Example 166, (2E)-1-[2-(4-chlorophenyl)-3-(pyridin-4-yl)-6,7-dihydropyrazolo[1,5-a]pyrazin-5(4H)-yl]-4-[isopropyl(methyl)amino]but-2-en-1-one] | 0.338 | 78.1 | 0.169 |
| CC(C)(C)NC/C=C/C(=O)N1CCn2nc(-c3ccc(Cl)cc3)c(-c3ccncc3)c2C1 [Example 167, (2E)-4-(tert-butylamino)-1-[2-(4-chlorophenyl)-3-(pyridin-4-yl)-6,7-dihydropyrazolo[1,5-a]pyrazin-5(4H)-yl]but-2-en-1-one] | 1.02 | 35.2 | 0.256 |
| COC1CCN(C/C=C/C(=O)N2CCn3nc(-c4ccc(Cl)cc4)c(-c4ccncc4)c3C2)CC1 [Example 168, (2E)-1-[2-(4-chlorophenyl)-3-(pyridin-4-yl)-6,7-dihydropyrazolo[1,5-a]pyrazin-5(4H)-yl]-4-(4-methoxypiperidin-1-yl) but-2-en-1-one] | 0.692 | 63.7 | 0.245 |
| COCCN(C)C/C=C/C(=O)N1CCn2nc(-c3ccc(Cl)cc3)c(-c3ccncc3)c2C1 [Example 169, (2E)-1-[2-(4-chlorophenyl)-3-(pyridin-4-yl)-6,7-dihydropyrazolo[1,5-a]pyrazin-5(4H)-yl]-4-[(2-methoxyethyl)(methyl)amino]but-2-en-1-one] | 0.385 | 66.9 | 0.18 |
| O=C(/C=C/CN1CCCC1)N1CCn2nc(-c3ccc(Cl)cc3)c(-c3ccncc3)c2C1 [Example 171, (2E)-1-[2-(4-chlorophenyl)-3-(pyridin-4-yl)-6,7-dihydropyrazolo[1,5-a]pyrazin-5(4H)-yl]-4-(pyrrolidin-1-yl)but-2-en-1-one] | 0.406 | 33.7 | 0.136 |
| O=C(/C=C/CN1CC(F)C1)N1CCn2nc(-c3ccc(Cl)cc3)c(-c3ccncc3)c2C1 [Example 172, (2E)-1-[2-(4-chlorophenyl)-3-(pyridin-4-yl)-6,7-dihydropyrazolo[1,5-a]pyrazin-5(4H)-yl]-4-(3-fluoroazetidin-1-yl) but-2-en-1-one] | 1.21 | 43.2 | 0.203 |
